Our source for the inhibition values is US7906512B2, “3,6-substituted imidazol[1,2-b]pyridazine analogs for treating allergic and inflammatory diseases” (Alcon, Inc., priority 2005, dated 2011).

The test deals with Syk (h) (Homo sapiens, UniProt P43405). The test is described as follows: Syk kinase inhibition assay (33P-ATP filter binding). It counts as biochemical. As for the experimental part: In a final reaction volume of 25 μl, Syk (h) (5-10 mU) is incubated with 50 mM Tris pH 7.5, […], 0.1 mM Na3VO4, 0.1% β-mercaptoethanol, 0.1 mg/mL poly (Glu, Tyr) 4:1, 10 μM test agent, 10 mM MgAcetate and [γ-^33P-ATP] (specific activity approximately 500 cpm/pmol, concentration as required). The reaction is initiated by the addition of the MgATP mix. After incubation for 40 minutes at room temperature, the reaction is stopped by the addition of 5 μl of a 3% phosphoric acid solution. 10 μl of the reaction is then spotted onto a Filtermat A and washed three times for 5 minutes in 75 mM phosphoric acid and once in methanol prior to drying and scintillation counting. Percent inhibition was calculated using the following formula: % Control=((sample-mean no enzyme)/(mean plus enzyme−mean no enzyme))×100.

Where [1] appears, read: 10 μM test agent, 40 minutes at room temperature, substrate poly (Glu, Tyr) 4:1, read-out: % inhibition.

Like-named read-outs stand apart in the source and are kept apart here.

As for `CN1CCN(c2ccc(CNc3ccc4ncc(-c5cccc(OC(F)(F)F)c5)n4n3)cc2)CC1`, the inhibition at 10 µM under setting [1] came out at 33%.

Compound `CCCC/C=C/c1cnc2ccc(NCCN(C)C)nn12` showed an inhibition at 10 µM of 27%.

Consider `c1csc(-c2cnc3ccc(NCC4CC4)nn23)c1`, for which, under setting [1], the inhibition at 10 µM was 26%.

Regarding `COc1cc(CNc2ccc3ncc(-c4ccc(Oc5ccccc5)cc4)n3n2)cc(OC)c1OC`, the inhibition at 10 µM under setting [1] was 24%.

Consider `COc1ccc(-c2cnc3ccc(NCc4ccccn4)nn23)cc1`, for which the inhibition at 10 µM under setting [1] worked out at 77%.

For the compound `c1n[nH]cc1-c1cnc2ccc(NC3CCOCC3)nn12`, the inhibition at 10 µM under setting [1] is 42%.

With `CCCNc1ccc2ncc(-c3cc(C)cs3)n2n1`, under setting [1], the inhibition at 10 µM stood at 38%.

In the case of `CCCNc1ccc2ncc(-c3ccsc3)n2n1`, under setting [1], the inhibition at 10 µM was determined as 23%.

Regarding `COc1ccccc1-c1cnc2ccc(NCc3ccccn3)nn12`, the inhibition at 10 µM under setting [1] came to 81%.
